Assay in all cases: relative viability (nuclei count vs DMSO), 5 days (fraction); higher = more cells survive
Compound in one assay: CC(C)C[C@H](NC(=O)[C@H](CCc1ccccc1)NC(=O)CN1CCOCC1)C(=O)N[C@@H](Cc1ccccc1)C(=O)N[C@@H](CC(C)C)C(=O)[C@@]1(C)CO1 [Carfilzomib]
The gist of the method: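 Vehicle-anchored 1536-well plates of lung cancer cell lines, held overnight at 37 °C, were pinned with five library-drug doses (not always all listed) spaced by √10. No medium change followed over the next 5 days, after which the cells were fixed, permeabilised and Hoechst-stained together and imaged at 4×. Nuclei were counted with MetaXpress, and viability is treated-well nuclei over vehicle-well nuclei, taken as a median across plates. Plates passed with control CV below 25% and at least one doubling.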

Compound in the assay “Carfilzomib + Foretinib”: CC(C)C[C@H](NC(=O)[C@H](CCc1ccccc1)NC(=O)CN1CCOCC1)C(=O)N[C@@H](Cc1ccccc1)C(=O)N[C@@H](CC(C)C)C(=O)[C@@]1(C)CO1 [Carfilzomib] + COc1cc2c(Oc3ccc(NC(=O)C4(C(=O)Nc5ccc(F)cc5)CC4)cc3F)ccnc2cc1OCCCN1CCOCC1 [Foretinib] (partner 0.25 µM)
In a few lines:
(§1)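 Medians of duplicate plates are given as relative viability. That measure is the nuclei count in treated wells divided by the count in vehicle wells. Counts were taken on 4× images of lung cancer cell lines in 1536-well plates, 5 days after pin-tool dosing the day after seeding with one drug alone or a fixed anchor-drug dose plus five library-drug doses (not always all listed) in √10 steps.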

Compound in the assay “Crizotinib + OSI-027”: C[C@@H](Oc1cc(-c2cnn(C3CCNCC3)c2)cnc1N)c1c(Cl)ccc(F)c1Cl [Crizotinib] + COc1cccc2cc(-c3nc([C@H]4CC[C@H](C(=O)O)CC4)n4ncnc(N)c34)[nH]c12 [OSI-027] (partner 0.5 µM)
In a few lines:
as §1

RERF-LC-KJ: the relative viability was found to be 0.923 with Carfilzomib (0.001 µM); 1.03 with Carfilzomib (0.003162 µM); 1.05 with Carfilzomib (0.01 µM); 0.683 with Carfilzomib (0.03162 µM); 0.259 in the assay with Carfilzomib (0.1 µM); 0.873 in the assay with Carfilzomib + Foretinib (first compound 0.001 µM). The relative viability in the assay with Carfilzomib + Foretinib (first compound 0.003162 µM) is 0.86; with Carfilzomib + Foretinib (first compound 0.01 µM), 0.886; with Carfilzomib + Foretinib (first compound 0.03162 µM), 0.794; with Carfilzomib + Foretinib (first compound 0.1 µM), 0.409; with Crizotinib + OSI-027 (first compound 0.01 µM) it was 0.518; in the assay with Crizotinib + OSI-027 (first compound 0.03162 µM), 0.619. Also, the relative viability in the assay with Crizotinib + OSI-027 (first compound 0.1 µM) stood at 0.521; in the assay with Crizotinib + OSI-027 (first compound 0.3162 µM) it was 0.542; with Crizotinib + OSI-027 (first compound 1 µM) it was 0.612.
In the case of SK-LU-1, the relative viability came to 0.968 with Carfilzomib (0.001 µM); 1.22 with Carfilzomib (0.003162 µM); 1 with Carfilzomib (0.01 µM); 0.249 with Carfilzomib (0.03162 µM); 0.187 in the assay with Carfilzomib (0.1 µM); 0.838 with Carfilzomib + Foretinib (first compound 0.001 µM). Moreover, the relative viability turned out to be 0.857 with Carfilzomib + Foretinib (first compound 0.003162 µM); 0.919 with Carfilzomib + Foretinib (first compound 0.01 µM); 0.116 with Carfilzomib + Foretinib (first compound 0.03162 µM); 0.124 with Carfilzomib + Foretinib (first compound 0.1 µM); 0.36 with Crizotinib + OSI-027 (first compound 0.01 µM); 0.342 with Crizotinib + OSI-027 (first compound 0.03162 µM). The relative viability in the assay with Crizotinib + OSI-027 (first compound 0.1 µM) is 0.331; with Crizotinib + OSI-027 (first compound 0.3162 µM), 0.324; with Crizotinib + OSI-027 (first compound 1 µM), 0.353.
With NCI-H1792, the relative viability stood at 0.827 with Carfilzomib (0.001 µM); 0.962 with Carfilzomib (0.003162 µM); 0.957 in the assay with Carfilzomib (0.01 µM); 0.658 with Carfilzomib (0.03162 µM); 0.388 with Carfilzomib (0.1 µM); 0.72 with Crizotinib + OSI-027 (first compound 0.01 µM). For the same cell line, the relative viability with Crizotinib + OSI-027 (first compound 0.03162 µM) worked out at 0.748; with Crizotinib + OSI-027 (first compound 0.1 µM), 0.656; with Crizotinib + OSI-027 (first compound 1 µM), 0.722.
Regarding NCI-H1666, the relative viability amounted to 1.02 in the assay with Carfilzomib (0.001 µM); 1.07 with Carfilzomib (0.003162 µM); 1.06 in the assay with Carfilzomib (0.01 µM); 0.981 in the assay with Carfilzomib (0.03162 µM); 0.437 with Carfilzomib (0.1 µM); 0.988 in the assay with Carfilzomib + Foretinib (first compound 0.001 µM). The relative viability with Carfilzomib + Foretinib (first compound 0.003162 µM) turned out to be 0.979; with Carfilzomib + Foretinib (first compound 0.01 µM) it was 1.07; with Carfilzomib + Foretinib (first compound 0.03162 µM), 0.928; with Carfilzomib + Foretinib (first compound 0.1 µM), 0.45; with Crizotinib + OSI-027 (first compound 0.01 µM), 0.8; with Crizotinib + OSI-027 (first compound 0.03162 µM), 0.893. The figures for the relative viability in the assay with Crizotinib + OSI-027 (first compound 0.1 µM), in the assay with Crizotinib + OSI-027 (first compound 0.3162 µM) and with Crizotinib + OSI-027 (first compound 1 µM) were 0.837, 0.903 and 0.855, respectively.
For the cell line SK-MES-1, the relative viability in the assay with Carfilzomib (0.001 µM) came out at 0.987; in the assay with Carfilzomib (0.003162 µM), 1.05; with Carfilzomib (0.01 µM), 1.06; with Carfilzomib (0.03162 µM), 0.782; with Carfilzomib (0.1 µM), 0.186; with Carfilzomib + Foretinib (first compound 0.001 µM), 0.851. For the same cell line, the relative viability was 0.954 in the assay with Carfilzomib + Foretinib (first compound 0.003162 µM); 0.918 with Carfilzomib + Foretinib (first compound 0.01 µM); 0.97 with Carfilzomib + Foretinib (first compound 0.03162 µM); 0.283 with Carfilzomib + Foretinib (first compound 0.1 µM); 0.612 with Crizotinib + OSI-027 (first compound 0.01 µM); 0.646 with Crizotinib + OSI-027 (first compound 0.03162 µM). Further, the relative viability with Crizotinib + OSI-027 (first compound 0.1 µM) amounted to 0.568; with Crizotinib + OSI-027 (first compound 0.3162 µM) it was 0.556; in the assay with Crizotinib + OSI-027 (first compound 1 µM), 0.586.
For the cell line HCC-44, the relative viability in the assay with Carfilzomib (0.001 µM) was found to be 0.988; with Carfilzomib (0.003162 µM) it was 0.996; with Carfilzomib (0.01 µM), 1.05; with Carfilzomib (0.03162 µM), 0.819; with Carfilzomib (0.1 µM), 0.317; with Crizotinib + OSI-027 (first compound 0.01 µM) it was 0.409. Moreover, the relative viability with Crizotinib + OSI-027 (first compound 0.03162 µM) came to 0.546; in the assay with Crizotinib + OSI-027 (first compound 0.1 µM), 0.611; in the assay with Crizotinib + OSI-027 (first compound 0.3162 µM), 0.54; in the assay with Crizotinib + OSI-027 (first compound 1 µM) it was 0.371.
In the case of Calu-6, the relative viability with Carfilzomib (0.001 µM) worked out at 0.992; in the assay with Carfilzomib (0.003162 µM), 1.09; in the assay with Carfilzomib (0.01 µM), 0.92; in the assay with Carfilzomib (0.03162 µM) it was 0.306; in the assay with Carfilzomib (0.1 µM), 0.11; with Carfilzomib + Foretinib (first compound 0.001 µM), 0.889. In addition, the relative viability with Carfilzomib + Foretinib (first compound 0.003162 µM) was found to be 0.933; with Carfilzomib + Foretinib (first compound 0.01 µM) it was 0.842; with Carfilzomib + Foretinib (first compound 0.03162 µM) it was 0.127; in the assay with Carfilzomib + Foretinib (first compound 0.1 µM) it was 0.0591.
Regarding NCI-H522, the relative viability in the assay with Carfilzomib (0.001 µM) amounted to 0.889; with Carfilzomib (0.003162 µM), 1.11; with Carfilzomib (0.01 µM) it was 1.01; with Carfilzomib (0.03162 µM), 0.734; with Carfilzomib (0.1 µM) it was 0.375; with Crizotinib + OSI-027 (first compound 0.01 µM), 0.672. The relative viability was found to be 0.718 with Crizotinib + OSI-027 (first compound 0.03162 µM), 0.702 with Crizotinib + OSI-027 (first compound 0.1 µM), 0.739 with Crizotinib + OSI-027 (first compound 0.3162 µM) and 0.701 with Crizotinib + OSI-027 (first compound 1 µM).
NCI-H1299: the relative viability amounted to 1.03 with Carfilzomib (0.001 µM); 1.02 with Carfilzomib (0.003162 µM); 1.02 with Carfilzomib (0.01 µM); 0.577 with Carfilzomib (0.03162 µM); 0.158 in the assay with Carfilzomib (0.1 µM); 1.03 with Carfilzomib + Foretinib (first compound 0.001 µM). The relative viability with Carfilzomib + Foretinib (first compound 0.003162 µM) was determined as 1.02; with Carfilzomib + Foretinib (first compound 0.01 µM), 1.14; with Carfilzomib + Foretinib (first compound 0.03162 µM) it was 0.597; with Carfilzomib + Foretinib (first compound 0.1 µM), 0.117.
For IA-LM, the relative viability stood at 0.884 in the assay with Carfilzomib (0.001 µM); 0.879 with Carfilzomib (0.003162 µM); 0.94 in the assay with Carfilzomib (0.01 µM); 0.107 in the assay with Carfilzomib (0.03162 µM); 0.0275 in the assay with Carfilzomib (0.1 µM); 1.22 with Carfilzomib + Foretinib (first compound 0.001 µM). The relative viability stood at 1.23 in the assay with Carfilzomib + Foretinib (first compound 0.003162 µM), 0.899 with Carfilzomib + Foretinib (first compound 0.01 µM), 0.0144 in the assay with Carfilzomib + Foretinib (first compound 0.03162 µM) and 0.0167 in the assay with Carfilzomib + Foretinib (first compound 0.1 µM).
With EBC-1, the relative viability in the assay with Carfilzomib (0.001 µM) was 1.01; with Carfilzomib (0.003162 µM), 1.09; with Carfilzomib (0.01 µM), 0.642; in the assay with Carfilzomib (0.03162 µM), 0.11; in the assay with Carfilzomib (0.1 µM), 0.103; in the assay with Carfilzomib + Foretinib (first compound 0.001 µM) it was 0.0996. For the same cell line, the relative viability was 0.124 in the assay with Carfilzomib + Foretinib (first compound 0.003162 µM), 0.121 with Carfilzomib + Foretinib (first compound 0.01 µM), 0.0586 with Carfilzomib + Foretinib (first compound 0.03162 µM) and 0.0611 in the assay with Carfilzomib + Foretinib (first compound 0.1 µM).
As to NCI-H1703, the relative viability with Carfilzomib (0.001 µM) is 0.839; with Carfilzomib (0.003162 µM), 1.22; in the assay with Carfilzomib (0.01 µM), 0.439; with Carfilzomib (0.03162 µM), 0.132; with Carfilzomib (0.1 µM), 0.128; with Carfilzomib + Foretinib (first compound 0.003162 µM), 0.421. The relative viability was found to be 0.231 with Carfilzomib + Foretinib (first compound 0.01 µM), 0.126 in the assay with Carfilzomib + Foretinib (first compound 0.03162 µM) and 0.154 with Carfilzomib + Foretinib (first compound 0.1 µM).

The values above are taken from the supplement of paper PMC10307832.
